Measurements from US11981658B2, “Substituted aminopyridine compounds as EGFR inhibitors” (YUHAN CORPORATION, priority 2021, dated 2024).
Where two headings read alike, the source gives them in different places.

How the values were obtained:
EGFR wildtype (WT) = EGFR wildtype (WT) (Homo sapiens, UniProt P00533); assay: Biochemical EGFR kinase inhibition assay (Lance Ultra TR-FRET), wildtype
In short: (§1)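 Kinase activity is measured by TR-FRET phosphopeptide detection. Compounds span 0.003 μM to 10 μM; the 1 h reaction at room temperature is quenched with EDTA, then labelled antibody (2 nM) is incubated 60 min before reading.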

EGFR Del19/C797S = EGFR Del19/C797S (Homo sapiens, UniProt P00533, C797S/DEL746-750); assay: Biochemical EGFR kinase inhibition assay (Lance Ultra TR-FRET), double mutant del19/C797S
EGFR Del19/C797S, sequence (P00533 with tags, fused parts or gaps DEL746-750/C797S): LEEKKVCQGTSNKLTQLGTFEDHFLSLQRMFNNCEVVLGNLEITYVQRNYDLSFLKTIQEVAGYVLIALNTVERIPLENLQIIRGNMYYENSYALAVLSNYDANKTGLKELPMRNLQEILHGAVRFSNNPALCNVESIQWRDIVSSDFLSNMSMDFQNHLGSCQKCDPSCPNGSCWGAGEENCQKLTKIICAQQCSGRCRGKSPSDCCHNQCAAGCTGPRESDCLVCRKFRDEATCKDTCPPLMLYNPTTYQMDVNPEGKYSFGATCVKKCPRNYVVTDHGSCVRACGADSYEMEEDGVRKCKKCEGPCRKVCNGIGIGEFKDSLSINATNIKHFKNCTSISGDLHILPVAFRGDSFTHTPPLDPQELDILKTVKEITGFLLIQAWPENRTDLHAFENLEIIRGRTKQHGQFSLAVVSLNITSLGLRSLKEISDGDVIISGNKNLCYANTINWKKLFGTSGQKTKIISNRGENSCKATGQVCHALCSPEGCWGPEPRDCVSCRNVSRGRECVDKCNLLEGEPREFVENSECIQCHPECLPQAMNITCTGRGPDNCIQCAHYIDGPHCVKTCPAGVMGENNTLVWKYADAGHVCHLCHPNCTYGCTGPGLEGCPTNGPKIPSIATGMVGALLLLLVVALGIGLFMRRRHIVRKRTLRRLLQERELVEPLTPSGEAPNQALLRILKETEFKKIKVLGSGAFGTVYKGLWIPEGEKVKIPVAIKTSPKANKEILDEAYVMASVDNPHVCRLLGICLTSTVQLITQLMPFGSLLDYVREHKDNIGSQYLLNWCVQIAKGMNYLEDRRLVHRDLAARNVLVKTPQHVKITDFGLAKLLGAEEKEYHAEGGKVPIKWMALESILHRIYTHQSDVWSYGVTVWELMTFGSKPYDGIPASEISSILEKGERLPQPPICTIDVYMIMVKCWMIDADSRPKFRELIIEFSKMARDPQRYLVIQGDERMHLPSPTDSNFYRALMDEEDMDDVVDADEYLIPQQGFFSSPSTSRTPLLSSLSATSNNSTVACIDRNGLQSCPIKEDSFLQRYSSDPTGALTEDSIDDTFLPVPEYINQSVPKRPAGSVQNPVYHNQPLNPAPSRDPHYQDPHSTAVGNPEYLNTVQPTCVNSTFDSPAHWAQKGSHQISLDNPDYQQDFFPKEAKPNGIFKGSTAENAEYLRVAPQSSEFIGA
In short: as §1

EGFR L858R/T790M/C797S = EGFR L858R/T790M/C797S (Homo sapiens, UniProt P00533, C797S/L858R/T790M); assay: Biochemical EGFR kinase inhibition assay (Lance Ultra TR-FRET), triple mutant L858R/T790M/C797S
EGFR L858R/T790M/C797S, sequence (P00533 25-1210 T790M/C797S/L858R): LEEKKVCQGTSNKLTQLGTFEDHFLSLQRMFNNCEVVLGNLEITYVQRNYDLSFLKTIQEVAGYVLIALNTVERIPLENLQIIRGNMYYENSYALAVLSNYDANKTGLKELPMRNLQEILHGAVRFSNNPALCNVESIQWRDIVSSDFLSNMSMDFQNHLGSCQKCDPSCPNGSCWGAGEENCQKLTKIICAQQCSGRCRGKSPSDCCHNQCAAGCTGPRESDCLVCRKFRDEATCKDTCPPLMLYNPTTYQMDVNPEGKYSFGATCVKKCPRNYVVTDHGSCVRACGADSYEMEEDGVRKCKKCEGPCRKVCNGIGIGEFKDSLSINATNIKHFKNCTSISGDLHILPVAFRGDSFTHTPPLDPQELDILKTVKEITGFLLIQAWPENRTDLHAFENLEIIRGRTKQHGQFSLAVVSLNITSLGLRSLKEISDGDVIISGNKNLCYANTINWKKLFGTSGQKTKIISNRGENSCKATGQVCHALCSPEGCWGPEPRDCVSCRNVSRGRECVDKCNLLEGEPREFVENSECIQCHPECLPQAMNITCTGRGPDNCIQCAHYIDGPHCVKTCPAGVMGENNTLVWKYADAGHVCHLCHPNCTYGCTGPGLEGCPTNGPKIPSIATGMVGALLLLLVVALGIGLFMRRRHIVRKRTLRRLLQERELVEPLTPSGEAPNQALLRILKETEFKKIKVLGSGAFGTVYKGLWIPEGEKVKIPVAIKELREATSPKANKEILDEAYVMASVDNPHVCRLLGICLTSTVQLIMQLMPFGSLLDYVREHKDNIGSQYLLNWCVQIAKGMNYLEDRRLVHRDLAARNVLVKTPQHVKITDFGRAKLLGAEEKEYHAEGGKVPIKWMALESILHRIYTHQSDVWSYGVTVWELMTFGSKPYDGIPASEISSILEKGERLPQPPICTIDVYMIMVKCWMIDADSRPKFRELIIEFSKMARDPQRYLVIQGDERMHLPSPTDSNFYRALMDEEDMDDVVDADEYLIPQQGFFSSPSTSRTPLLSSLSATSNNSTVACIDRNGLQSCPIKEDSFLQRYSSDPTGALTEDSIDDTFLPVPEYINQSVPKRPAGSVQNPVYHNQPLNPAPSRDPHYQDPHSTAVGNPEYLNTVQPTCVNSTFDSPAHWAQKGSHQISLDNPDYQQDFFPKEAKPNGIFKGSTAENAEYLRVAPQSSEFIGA
In short: as §1

EGFR Del19/T790M/C797S = EGFR Del19/T790M/C797S (Homo sapiens, UniProt P00533, C797S/DEL746-750/T790M); assay: Biochemical EGFR kinase inhibition assay (Lance Ultra TR-FRET), triple mutant del19/T790M/C797S
In short: as §1

EGFR L858R/C797S = EGFR L858R/C797S (Homo sapiens, UniProt P00533, C797S/L858R); assay: Biochemical EGFR kinase inhibition assay (Lance Ultra TR-FRET), double mutant L858R/C797S
EGFR L858R/C797S, sequence (P00533 25-1210 C797S/L858R): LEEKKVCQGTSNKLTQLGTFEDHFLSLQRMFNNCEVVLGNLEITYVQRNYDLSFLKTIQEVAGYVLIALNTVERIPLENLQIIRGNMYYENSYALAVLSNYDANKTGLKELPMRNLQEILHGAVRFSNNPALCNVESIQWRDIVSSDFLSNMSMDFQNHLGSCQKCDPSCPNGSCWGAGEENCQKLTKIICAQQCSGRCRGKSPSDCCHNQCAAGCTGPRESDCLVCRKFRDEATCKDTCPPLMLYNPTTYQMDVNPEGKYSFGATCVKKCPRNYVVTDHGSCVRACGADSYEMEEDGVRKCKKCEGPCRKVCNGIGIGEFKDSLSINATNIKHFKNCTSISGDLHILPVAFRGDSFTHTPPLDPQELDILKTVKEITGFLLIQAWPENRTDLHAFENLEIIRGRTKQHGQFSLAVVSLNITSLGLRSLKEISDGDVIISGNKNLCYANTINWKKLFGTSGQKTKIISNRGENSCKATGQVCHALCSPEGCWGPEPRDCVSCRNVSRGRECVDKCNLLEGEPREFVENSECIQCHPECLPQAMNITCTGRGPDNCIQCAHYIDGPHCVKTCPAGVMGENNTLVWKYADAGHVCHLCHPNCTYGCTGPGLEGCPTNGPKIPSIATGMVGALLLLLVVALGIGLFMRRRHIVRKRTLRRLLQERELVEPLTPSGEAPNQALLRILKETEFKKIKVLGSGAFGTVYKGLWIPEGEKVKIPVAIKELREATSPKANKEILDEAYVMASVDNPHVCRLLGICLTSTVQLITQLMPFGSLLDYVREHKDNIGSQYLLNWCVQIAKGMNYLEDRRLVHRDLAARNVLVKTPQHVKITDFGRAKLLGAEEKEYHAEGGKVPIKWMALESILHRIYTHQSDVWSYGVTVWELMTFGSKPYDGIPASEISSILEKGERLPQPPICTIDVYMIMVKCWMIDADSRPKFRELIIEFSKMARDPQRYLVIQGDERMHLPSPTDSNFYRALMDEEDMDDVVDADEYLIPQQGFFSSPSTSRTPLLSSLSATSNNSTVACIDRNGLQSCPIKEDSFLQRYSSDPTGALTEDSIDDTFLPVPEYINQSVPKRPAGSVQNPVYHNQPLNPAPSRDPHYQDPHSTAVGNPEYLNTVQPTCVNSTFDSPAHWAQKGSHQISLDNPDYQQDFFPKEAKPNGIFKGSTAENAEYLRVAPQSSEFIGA
In short: as §1

[1] = Km ATP, read-out: IC50 WT (nM), Km ATP
[2] = IC50 Del19/C797S (nM), 100 μM ATP
[3] = Km ATP, read-out: IC50 Del19/C797S (nM), Km ATP
[4] = IC50 L858R/T790M/C797S (nM), 100 μM ATP
[5] = Km ATP, read-out: IC50 L858R/T790M/C797S (nM), Km ATP
[6] = IC50 Del19/T790M/C797S (nM), 100 μM ATP
[7] = Km ATP, read-out: IC50 Del19/T790M/C797S (nM), Km ATP
[8] = IC50 L858R/C797S (nM), 100 μM ATP
[9] = Km ATP, read-out: IC50 L858R/C797S (nM), Km ATP

EGFR wildtype (WT), sequence (P00533 25-1210): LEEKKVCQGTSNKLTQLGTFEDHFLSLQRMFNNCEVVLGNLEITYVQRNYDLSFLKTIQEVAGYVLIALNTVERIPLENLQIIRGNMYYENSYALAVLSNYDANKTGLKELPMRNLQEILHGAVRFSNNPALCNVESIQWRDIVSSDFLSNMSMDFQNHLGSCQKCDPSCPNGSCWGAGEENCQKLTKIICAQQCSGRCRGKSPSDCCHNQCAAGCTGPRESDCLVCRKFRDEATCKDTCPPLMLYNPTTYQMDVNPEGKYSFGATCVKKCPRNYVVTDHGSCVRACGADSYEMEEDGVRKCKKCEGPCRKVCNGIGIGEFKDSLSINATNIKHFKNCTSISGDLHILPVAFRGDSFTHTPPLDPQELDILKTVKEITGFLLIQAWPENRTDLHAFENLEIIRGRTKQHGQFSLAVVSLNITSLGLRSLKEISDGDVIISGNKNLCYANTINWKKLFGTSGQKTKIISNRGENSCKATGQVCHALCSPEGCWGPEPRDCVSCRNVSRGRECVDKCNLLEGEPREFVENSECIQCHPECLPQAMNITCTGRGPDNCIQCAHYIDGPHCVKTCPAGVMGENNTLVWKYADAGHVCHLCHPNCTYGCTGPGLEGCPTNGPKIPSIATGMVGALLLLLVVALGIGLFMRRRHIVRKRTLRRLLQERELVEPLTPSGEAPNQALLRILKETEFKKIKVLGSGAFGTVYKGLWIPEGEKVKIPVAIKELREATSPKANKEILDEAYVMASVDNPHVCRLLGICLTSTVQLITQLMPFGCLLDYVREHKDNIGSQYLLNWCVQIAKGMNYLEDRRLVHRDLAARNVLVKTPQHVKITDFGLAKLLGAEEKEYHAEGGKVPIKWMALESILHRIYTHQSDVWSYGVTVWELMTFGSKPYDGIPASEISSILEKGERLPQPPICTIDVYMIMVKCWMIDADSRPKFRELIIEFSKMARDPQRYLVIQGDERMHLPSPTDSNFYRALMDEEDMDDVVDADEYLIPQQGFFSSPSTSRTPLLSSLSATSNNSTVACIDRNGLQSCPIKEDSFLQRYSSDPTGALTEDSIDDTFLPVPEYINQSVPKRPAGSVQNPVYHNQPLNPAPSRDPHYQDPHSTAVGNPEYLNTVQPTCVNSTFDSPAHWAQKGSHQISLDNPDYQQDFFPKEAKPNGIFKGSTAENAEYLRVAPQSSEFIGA

IC50 (EGFR wildtype (WT); IC50 WT (nM), 100 μM ATP) [nM]	IC50 (EGFR wildtype (WT); [1]) [nM]	IC50 (EGFR Del19/C797S; [2]) [nM]	IC50 (EGFR Del19/C797S; [3]) [nM]	IC50 (EGFR L858R/T790M/C797S; [4]) [nM]	IC50 (EGFR L858R/T790M/C797S; [5]) [nM]	IC50 (EGFR Del19/T790M/C797S; [6]) [nM]	IC50 (EGFR Del19/T790M/C797S; [7]) [nM]	IC50 (EGFR L858R/C797S; [8]) [nM]	IC50 (EGFR L858R/C797S; [9]) [nM]	SMILES
8720	14.2	2.9	1.3	0.3	0.1	0.2	0.2	66.6	2	CC1(O)CCN(c2cc(Nc3ccnc(-c4cnn(S(=O)(=O)C5CC5)c4)n3)ncc2C#CC2(F)CCOC2)CC1 (centres unmarked) [Example 435, 1-(2-((2-(1-(Cyclopropylsulfonyl)-1H-pyrazol-4-yl)pyrimidin-4-yl)amino)-5-((3-fluorotetrahydrofuran-3-yl)ethynyl)pyridin-4-yl)-4-methylpiperidin-4-ol]
> 10000	3.7	1.3	0.6	0.1	0.1	0.1	0.1	39.3	0.8	CC1(CO)CCN(c2cc(Nc3ccnc(-c4cnn(S(=O)(=O)C5CC5)c4)n3)ncc2C#CC2CCS(=O)(=O)C2)CC1 (centres unmarked) [Example 437, 3-((6-((2-(1-(Cyclopropylsulfonyl)-1H-pyrazol-4-yl)pyrimidin-4-yl)amino)-4-(4-(hydroxymethyl)-4-methylpiperidin-1-yl)pyridin-3-yl)ethynyl)tetrahydrothiophene 1,1-dioxide]
6420	5.8	3.3	1.7	0.7	0.2	0.3	0.3	85.5	1.9	CC1OCCC1C#Cc1cnc(Nc2ccnc(-c3cnn(S(=O)(=O)C4CC4)c3)n2)cc1N1CCC(C)(CO)CC1 (centres unmarked) [Example 438, (1-(2-((2-(1-(Cyclopropylsulfonyl)-1H-pyrazol-4-yl)pyrimidin-4-yl)amino)-5-((2-methyltetrahydrofuran-3-yl)ethynyl)pyridin-4-yl)-4-methylpiperidin-4-yl)methanol]
> 10000	122	24.5	12.5	3.7	1.3	1.7	2.1	62.7	11.1	O=S(=O)(C1CC1)n1cc(-c2nccc(Nc3cc(N4CCC[C@H](O)C4)c(C#Cc4cnn(C(F)(F)F)c4)cn3)n2)cn1 [Example 439, (S)-1-(2-((2-(1-(Cyclopropylsulfonyl)-1H-pyrazol-4-yl)pyrimidin-4-yl)amino)-5-((1-(trifluoromethyl)-1H-pyrazol-4-yl)ethynyl)pyridin-4-yl)piperidin-3-ol]
> 10000	48.4	9.7	7.6	1.3	0.5	0.5	0.5	61.5	10.3	O=S(=O)(C1CC1)n1cc(-c2nccc(Nc3cc(N4CCC[C@@H](O)C4)c(C#Cc4cnn(CCF)c4)cn3)n2)cn1 [Example 440, (R)-1-(2-((2-(1-(Cyclopropylsulfonyl)-1H-pyrazol-4-yl)pyrimidin-4-yl)amino)-5-((1-(2-fluoroethyl)-1H-pyrazol-4-yl)ethynyl)pyridin-4-yl)piperidin-3-ol]
> 10000	16.9	2.1	1.5	0.5	0.2	0.4	0.3	59.8	3.5	C[C@]1(O)CCCN(c2cc(Nc3ccnc(-c4cnn(S(=O)(=O)C5CC5)c4)n3)ncc2C#Cc2cnn(CCF)c2)C1 [Example 447, (S)-1-(2-((2-(1-(Cyclopropylsulfonyl)-1H-pyrazol-4-yl)pyrimidin-4-yl)amino)-5-((1-(2-fluoroethyl)-1H-pyrazol-4-yl)ethynyl)pyridin-4-yl)-3-methylpiperidin-3-ol]

Continued, molecule first:

SMILES	IC50 (EGFR wildtype (WT); IC50 WT (nM), 100 μM ATP) [nM]	IC50 (EGFR wildtype (WT); [1]) [nM]	IC50 (EGFR Del19/C797S; [2]) [nM]	IC50 (EGFR Del19/C797S; [3]) [nM]	IC50 (EGFR L858R/T790M/C797S; [4]) [nM]	IC50 (EGFR L858R/T790M/C797S; [5]) [nM]	IC50 (EGFR Del19/T790M/C797S; [6]) [nM]	IC50 (EGFR Del19/T790M/C797S; [7]) [nM]	IC50 (EGFR L858R/C797S; [8]) [nM]	IC50 (EGFR L858R/C797S; [9]) [nM]
O=S(=O)(C1CC1)n1cc(-c2nccc(Nc3cc(NC4CCC(CO)CC4)c(C#CC4(F)CCOC4)cn3)n2)cn1 (centres unmarked) [Example 434, ((1s,4s)-4-((2-((2-(1-(Cyclopropylsulfonyl)-1H-pyrazol-4-yl)pyrimidin-4-yl)amino)-5-((3-fluorotetrahydrofuran-3-yl)ethynyl)pyridin-4-yl)amino)cyclohexyl)methanol]	8890	21.2	5.2	2.3	0.5	0.2	0.3	0.4	125	2.4
O=S(=O)(C1CC1)n1cc(-c2nccc(Nc3cc(NC4CCC(O)CC4)c(C#CC4(F)CCOC4)cn3)n2)cn1 (centres unmarked) [Example 436, (1s,4s)-4-((2-((2-(1-(Cyclopropylsulfonyl)-1H-pyrazol-4-yl)pyrimidin-4-yl)amino)-5-((3-fluorotetrahydrofuran-3-yl)ethynyl)pyridin-4-yl)amino)cyclohexan-1-ol]	> 10000	12.5	3.1	1.7	0.3	0.1	0.2	0.1	111	2.5
O=C(c1ccc(C#Cc2cnc(Nc3ccnc(-c4cnn(S(=O)(=O)C5CC5)c4)n3)cc2N[C@H]2CC[C@@H](CO)CC2)cc1)N1CCC(O)CC1 [Example 441, (4-((6-((2-(1-(Cyclopropylsulfonyl)-1H-pyrazol-4-yl)pyrimidin-4-yl)amino)-4-(((ls, 4s)-4-(hydroxymethyl)cyclohexyl)amino)pyridin-3-yl)ethynyl)phenyl)(4-hydroxypiperidin-1-yl)methanone]	> 10000	–	2.3	–	0.8	0.5	2.2	2.1	47.1	–
CC1(O)CCN(c2cc(Nc3ccnc(-c4cnn(S(=O)(=O)C5CC5)c4)n3)ncc2C#Cc2ccc(C(=O)N3CCC(O)CC3)cc2)CC1 [Example 442, (4-((6-((2-(1-(Cyclopropylsulfonyl)-1H-pyrazol-4-yl)pyrimidin-4-yl)amino)-4-(4-hydroxy-4-methylpiperidin-1-yl)pyridin-3-yl)ethynyl)phenyl)(4-hydroxypiperidin-1-yl)methanone]	9930	–	1.3	–	0.3	0.1	0.9	0.7	20.3	–
O=C(c1ccc(C#Cc2cnc(Nc3ccnc(-c4cnn(S(=O)(=O)C5CC5)c4)n3)cc2NC[C@H]2CC[C@H](CO)CC2)cc1)N1CCC(O)CC1 [Example 443, (4-((6-((2-(1-(Cyclopropylsulfonyl)-1H-pyrazol-4-yl)pyrimidin-4-yl)amino)-4-((((1 r,4r)-4-(hydroxymethyl)cyclohexyl)methyl)amino)pyridin-3-yl)ethynyl)phenyl)(4-hydroxypiperidin-1-yl)methanone]	> 10000	–	53.5	–	4	1.2	7.7	4.3	4610	–
O=C(c1ccc(C#Cc2cnc(Nc3ccnc(-c4cnn(S(=O)(=O)C5CC5)c4)n3)cc2N2CCC[C@@H](O)C2)cc1)N1CCC(O)CC1 [Example 444, (R)-(4-((6-((2-(1-(Cyclopropylsulfonyl)-1H-pyrazol-4-yl)pyrimidin-4-yl)amino)-4-(3-hydroxypiperidin-1-yl)pyridin-3-yl)ethynyl)phenyl)(4-hydroxypiperidin-1-yl)methanone]	> 10000	–	10.2	–	1.5	0.3	1.5	0.9	549	–
O=C(c1ccc(C#Cc2cnc(Nc3ccnc(-c4cnn(S(=O)(=O)C5CC5)c4)n3)cc2N2CCC[C@H](O)C2)cc1)N1CCC(O)CC1 [Example 445, (S)-(4-((6-((2-(1-(Cyclopropylsulfonyl)-1H-pyrazol-4-yl)pyrimidin-4-yl)amino)-4-(3-hydroxypiperidin-1-yl)pyridin-3-yl)ethynyl)phenyl)(4-hydroxypiperidin-1-yl)methanone]	> 10000	–	2	–	0.4	0.1	0.9	0.5	104	–
CC1(CO)CCN(c2cc(Nc3ccnc(-c4cnn(S(=O)(=O)C5CC5)c4)n3)ncc2C#Cc2ccc(C(=O)N3CCC(O)CC3)cc2)CC1 [Example 446, (4-((6-((2-(1-(Cyclopropylsulfonyl)-1H-pyrazol-4-yl)pyrimidin-4-yl)amino)-4-(4-(hydroxymethyl)-4-methylpiperidin-1-yl)pyridin-3-yl)ethynyl)phenyl)(4-hydroxypiperidin-1-yl)methanone]	2670	–	1.3	–	0.4	0.2	1.2	1	18.9	–
